The nature of series [1]: RP-HPLC temperature profiling (peptide self-association parameter PA). The note with it: enantiomer pairs of V681 analogs, 5° C. to 80° C., relative to peptide C. The series is classed as physicochemical. The procedure, abridged: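 Peptide retention was profiled by RP-HPLC at pH 2 from 5 °C to 80 °C in 3 °C increments, using a linear gradient of 0.5% acetonitrile/min. The monomeric random-coil control peptide C profile was subtracted. PA is the maximum change in retention time relative to control C; higher PA means greater self-association.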

Series [2] concerns human erythrocytes. The note with it: WO 2006/065977, cited from earlier work.
Series [3] concerns human erythrocytes. Briefly: Hemolytic activity against human erythrocytes (HC50 / MHC, microtiter dilution). Format: cell-based. The procedure:
Hemoglobin release was determined spectrophotometrically at 570 nm. The hemolytic activity was determined as the peptide concentration that caused 50% hemolysis of erythrocytes after 18 h (HC50). […] HC50 was determined by a plot of peptide concentration versus percent lysis.

Another series deals with Gram-negative bacteria. Briefly: MIC against Gram-negative bacteria (V681 analog studies). Format: cell-based. The procedure: Minimal inhibitory concentrations (MICs) are determined using a standard microtiter dilution method, with 3 sets of determinations, in LB (Luria-Bertani) no-salt medium (10 g of tryptone and 5 g of yeast extract per liter). In some cases, Mueller Hinton (MH) medium or Brain Heart Infusion (BHI) medium is used.
Briefly, cells were grown overnight at 37° C. in LB and diluted in the same medium. Serial dilutions of the peptides are added to the microtiter plates in a volume of 100 μl followed by 10 μl of bacteria to give a final inoculum of 5×10^5 colony-forming units/ml. Plates are incubated at 37° C. for 24 hours and MICs determined as the lowest peptide concentration that inhibited growth. Alternatively, minimal inhibitory concentrations are determined using a standard microtiter dilution method in a Mueller-Hinton (MH) medium. Briefly, cells are grown overnight at 37° C. in MH broth and diluted in the same medium. In some cases, serial dilutions of the peptides are added to the microtiter plates in a volume of 100 μl followed by 10 μl of bacteria to give a final inoculum of 1×10^5 colony-forming units/ml. Plates are incubated at 37° C. for 24 hours and MICs are determined as the lowest peptide concentration that inhibited growth.

Series [4] can be described thus: RP-HPLC retention as measure of overall peptide hydrophobicity. The note with it: 80° C. The series is classed as physicochemical. How it is done: Crude and purified peptides were analyzed on an Agilent 1100 series liquid chromatograph (Little Falls, Del.). Runs were performed on a Zorbax 300 SB-C8 column (150×2.1 mm I.D.; 5 μm particle size, 300 Å pore size) from Agilent Technologies using linear AB gradient (1% acetonitrile/min) and a flow rate of 0.25 ml/min, where eluant A was 0.2% aqueous TFA, pH 2 and eluant B was 0.2% TFA in acetonitrile.

In series [5] the test system is human erythrocytes. The series can be described thus: Hemolytic activity against human erythrocytes (HC50 / MHC, microtiter dilution). To be noted: V681 analog studies. Format: cell-based.
Series [6] can be described thus: Circular dichroism spectroscopy (helical structure). Format: physicochemical.
For series [7] the following is noted: 50% TFE in 0.05% TFA; cited from earlier work.

These results are taken from patent publication US9352015B2, “Antimicrobial peptides” (priority 2009, dated 2016).

Converted amounts (≈) assume the structure as drawn. “Also recorded” adds a separate entry of the source. Like-named read-outs stand apart in the source and are kept apart here. Where a SMILES comes first, the peptide text is derived from it.

On to `CC[C@H](C)[C@H](NC(=O)[C@H](C)NC(=O)[C@H](CCCCN)NC(=O)[C@H](CC(C)C)NC(=O)[C@H](C)NC(=O)[C@@H](NC(=O)[C@H](Cc1c[nH]cn1)NC(=O)[C@H](CC(C)C)NC(=O)[C@@H](NC(=O)[C@@H](NC(=O)[C@H](CCCCN)NC(=O)[C@@H](C)NC(=O)[C@H](C)NC(=O)[C@H](CO)NC(=O)[C@H](CCCCN)NC(=O)[C@H](Cc1ccccc1)NC(=O)[C@@H](NC(=O)[C@H](CCCCN)NC(=O)[C@H](CC(C)C)NC(=O)[C@H](Cc1ccccc1)NC(=O)[C@H](CO)NC(=O)[C@H](CCCCN)NC(=O)[C@H](Cc1c[nH]c2ccccc12)NC(=O)[C@H](CCCCN)NC(C)=O)[C@@H](C)O)[C@@H](C)O)C(C)C)[C@@H](C)O)C(=O)N[C@@H](CO)C(=O)N[C@@H](CO)C(N)=O` [NAD] (HELM PEPTIDE1{[ac].K.W.K.S.F.L.K.T.F.K.S.A.[dA].K.T.V.L.H.T.A.L.K.A.I.S.S.[am]}$$$$V2.0), for which the “PA (peptide self-association parameter)” value in series [1] is on record as 4.1. Moreover, the Hemolytic activity was 250 µg/mL with human erythrocytes [2] (after 12 hours) and 31.3 µg/mL with human erythrocytes [2] (after 18 hours).

For `CC[C@H](C)[C@H](NC(=O)[C@H](C)NC(=O)[C@H](CCCCN)NC(=O)[C@H](CC(C)C)NC(=O)[C@H](C)NC(=O)[C@@H](NC(=O)[C@H](Cc1cnc[nH]1)NC(=O)[C@H](CC(C)C)NC(=O)[C@@H](NC(=O)[C@@H](NC(=O)[C@H](CCCCN)NC(=O)[C@H](CCCCN)NC(=O)[C@H](C)NC(=O)[C@H](CO)NC(=O)[C@H](CCCCN)NC(=O)[C@H](Cc1ccccc1)NC(=O)[C@@H](NC(=O)[C@H](CCCCN)NC(=O)[C@H](CC(C)C)NC(=O)[C@H](Cc1ccccc1)NC(=O)[C@H](CO)NC(=O)[C@H](CCCCN)NC(=O)[C@H](Cc1c[nH]c2ccccc12)NC(=O)[C@H](CCCCN)NC(C)=O)[C@@H](C)O)[C@@H](C)O)C(C)C)[C@@H](C)O)C(=O)N[C@@H](CO)C(=O)N[C@@H](CO)C(N)=O` [NKL], in the series with human erythrocytes [3], the “Fold decrease in hemolytic activity compared to V681” value is on record as over 32 fold. In addition, the “MIC against Gram-negative bacteria” value against Gram-negative bacteria was determined as 3.1 µg/mL (≈ 1.04 µM). Also, the “Change in hydrophobicity (retention time) relative to NVL (V681)” value in series [4] (non-polar face substitution) was -12.61 min. Also, the “PA (peptide self-association parameter)” value in series [1] was 2.1. Besides, the “Hemolytic activity, minimal hemolytic concentration (MHC)” value with human erythrocytes [5] is “undetectable level; also recorded: non-hemolytic; also recorded: no detectable hemolytic activity; also recorded: no measurable activity”.

Consider `CC[C@H](C)[C@H](NC(=O)[C@H](C)NC(=O)[C@H](CCCCN)NC(=O)[C@H](CC(C)C)NC(=O)[C@H](C)NC(=O)[C@@H](NC(=O)[C@H](Cc1c[nH]cn1)NC(=O)[C@H](CC(C)C)NC(=O)[C@@H](NC(=O)[C@@H](NC(=O)[C@H](CCCCN)NC(=O)[C@@H](NC(=O)[C@H](C)NC(=O)[C@H](CO)NC(=O)[C@H](CCCCN)NC(=O)[C@H](Cc1ccccc1)NC(=O)[C@@H](NC(=O)[C@H](CCCCN)NC(=O)[C@H](CC(C)C)NC(=O)[C@H](Cc1ccccc1)NC(=O)[C@H](CO)NC(=O)[C@H](CCCCN)NC(=O)[C@H](Cc1c[nH]c2ccccc12)NC(=O)[C@H](CCCCN)NC(C)=O)[C@@H](C)O)C(C)C)[C@@H](C)O)C(C)C)[C@@H](C)O)C(=O)N[C@@H](CO)C(=O)N[C@@H](CO)C(N)=O` [Peptide V681] (Ac-KWKSFLKTFKSAVKTVLHTALKAISS-NH2), for which the “Change in hydrophobicity (retention time) relative to PVL” value in series [4] (polar face substitution) is -0.35 min. Also, the “PA (peptide self-association parameter)” value in series [1] was 7.2. Further, the “[θ]222 molar ellipticity” value in series [6] (50% TFE) is listed as −27,300; in series [6] (benign conditions (100 mM KCl, 50 mM aq. PO4, pH 7)) it was −12,900. The results for the α-helical content in series [6] (50% TFE) and in series [6] (benign conditions) were 94% and 45%, respectively. Besides, the “Hemolytic activity, minimal hemolytic concentration (MHC)” value with human erythrocytes [5] was found to be 15.6 µg/mL. The “Transition temperature Tm (50% of α-helical structure denatured)” value in series [7] is 79.3 °C.
